Data published in PubChem BioAssay AID1421 (Emory University Molecular Libraries Screening Center, 2008).
Activity calls are given as the source filed them. No rule for the calls is given here.

These compounds were tested against Prostaglandin E2 receptor EP2 subtype (Homo sapiens) (UniProt P43116) (assay: EP2 receptor modulators, dose response, cell-based, human EP2, PGE2 EC50 shift (AID 1421)). Conditions: EP2-expressing cells, PGE2 EC50 shift by compound.
Chain of Prostaglandin E2 receptor EP2 subtype (Homo sapiens) (P43116 whole entry, looked up): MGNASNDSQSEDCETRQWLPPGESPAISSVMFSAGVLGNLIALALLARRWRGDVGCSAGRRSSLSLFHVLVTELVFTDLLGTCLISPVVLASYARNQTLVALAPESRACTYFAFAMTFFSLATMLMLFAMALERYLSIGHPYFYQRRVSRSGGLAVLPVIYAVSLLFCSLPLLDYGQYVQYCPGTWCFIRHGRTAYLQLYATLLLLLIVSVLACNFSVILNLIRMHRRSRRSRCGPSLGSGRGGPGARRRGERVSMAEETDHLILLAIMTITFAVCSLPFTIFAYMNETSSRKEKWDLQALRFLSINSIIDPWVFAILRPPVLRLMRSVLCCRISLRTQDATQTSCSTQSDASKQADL

SMILES	outcome
CC12CCC(C(=O)N(CSC(=S)N/N=C\c3ccccc3Cl)C1=O)C2(C)C (configuration not stated)	active
Cn1nc(-c2ccccc2)c(-c2nc(-c3cccc(C(F)(F)F)c3)no2)c1Cl	active
CCOC(=O)C1CCN(c2c(-c3ccccc3)c3cc(Cl)ccc3[nH]c2=O)CC1	active

More lines, now with the values ahead:

outcome	SMILES
active	O=C(Nc1ccccc1-c1ccccc1)c1ccc(Br)o1
active	Cn1cccc1/C=C1\CC(C(C)(C)C)C/C(=C\c2cccn2C)C1=O (configuration not stated)
active	CC1CCCC(C)N1C(=O)c1ccccc1Nc1ccc(SC(F)F)cc1 (configuration not stated)
active	CCOC(=O)c1c(NC(=O)c2ccc(-n3cnnn3)cc2)sc2c1CCCC2
active	CC(C)NC(=O)NC(=O)CSc1nnc(COc2ccccc2F)n1C(C)C1CC2CCC1C2 (configuration not stated)
active	CC(C)OC(=O)c1c(NC(=O)c2ccco2)sc2c1CCCCC2
active	COc1ccccc1CNc1cc(C)ccc1C

Same assay, conditions: EP2-expressing cells, PGE2 EC50 shift by compound; measured here: PGE2 EC50 at 6.7 uM compound

SMILES	PGE2 EC50 with compound
CC(C)c1nc(Cl)c(C#N)c2c1CSC(C)(C)C2	0.85 nM
O=S(=O)(O)c1ccc2c(N=Nc3c(O)ccc4ccccc34)cccc2c1	1.28 nM
CCN(CC)c1nc(C#N)nc(N(CC)CC)n1	0.95 nM
CC(=O)O[C@@H]1c2c(ccc3ccc(=O)oc23)OC(C)(C)[C@@H]1OC(=O)CC(C)C	0.92 nM
CCOc1nc(-c2ccccc2O)nc2ccccc12	1.1 nM
O=C(Cc1c(F)cccc1Cl)Nc1ccccc1N1CCCCC1	2.55 nM
CC(C)NC(=S)N/N=C1\CCCCC1C1CCCCC1 (configuration not stated)	1.34 nM
CC12CCC(C(=O)N(CSC(=S)N/N=C\c3ccccc3Cl)C1=O)C2(C)C (configuration not stated)	1.7 nM
Cc1ccc(Nc2nc(CSc3nnc(-c4ccccc4C)n3C)cs2)cc1	1.35 nM
CCN=C1S/C(=C\c2ccc(O)c(OCC)c2)C(=O)N1CC	0.81 nM
CCc1nnc2n1N=C(c1ccc(-c3cc(Cl)ccc3Cl)o1)CS2	0.89 nM
C=CCSc1nc2ccccc2c(=O)n1Cc1ccco1	0.91 nM
Cn1nc(-c2ccccc2)c(-c2nc(-c3cccc(C(F)(F)F)c3)no2)c1Cl	0.81 nM
COC(=O)c1c(NC(=O)Cc2cccs2)sc2c1CCC(C)C2 (configuration not stated)	0.94 nM
Brc1ccc(Cn2c(-c3ccc(Br)o3)nc3ccccc32)o1	2.59 nM
CCOC(=O)CNC(=O)c1ccc2c(c1)OCCO2	2.56 nM
CCOc1ccccc1C(=O)Nc1ccsc1C(=O)OC	1.32 nM
CC1(C)C=Cc2c(c3c(c4c(=O)c(-c5ccc(O)cc5)coc24)OC(C)(C)CC3)O1	1.11 nM
Cc1ccc(C(=O)OCC(=O)Nc2ccccc2Sc2ccccc2)cc1C	0.85 nM
CSc1nc(Oc2ccc(F)cc2)c2ccccc2n1	0.61 nM
CCc1ccc2[nH]c(=O)c(CN(Cc3nnnn3C3CCCC3)C3CCCCC3)cc2c1	0.8 nM
CC(C)CCn1c(N2CCN(c3cccc(Cl)c3)CC2)nc2c1c(=O)[nH]c(=O)n2C	0.93 nM
CCCC(=O)C1=C(O)C(C(=O)OC)C(C)(C)CC1=Nc1cccc2ccccc12 (configuration not stated)	1.53 nM
Cn1c(=O)[nH]c(=O)c2c1nc(CN1CCN(c3cccc(Cl)c3)CC1)n2Cc1ccccc1Cl	0.94 nM

Continued, values first:

PGE2 EC50 with compound	SMILES
0.88 nM	O=C(O)c1ccc(CNCc2cccc(Cl)c2Cl)cc1
1.99 nM	Cc1ccc(-n2cc(-c3ccccc3)c3c(N4CCOCC4)ncnc32)cc1
1.27 nM	O=C(Nc1ccccc1-c1ccccc1)c1ccc(Br)o1
0.64 nM	NS(=O)(=O)c1ccc(NCc2cnc3ccccc3n2)cc1
1.13 nM	CCOC(=O)CSc1nnc2n(C3CCCCC3)c(=O)c3c4c(sc3n12)CCCC4
1.15 nM	CCCSc1nc(N2CCCC2)c2c(c1C#N)CC(C)(C)OC2
1.44 nM	Cn1cccc1/C=C1\CC(C(C)(C)C)C/C(=C\c2cccn2C)C1=O (configuration not stated)
1.55 nM	CC12CCCC(O)(C1)C1CC(C)(C)C1CC2 (configuration not stated)
1.57 nM	CCCOC(=O)c1ccc(NC(=O)c2cn(CC)c3nc(C)ccc3c2=O)cc1
1.53 nM	CCOC(=O)c1c(NC(=O)c2cccs2)sc2c1CCN(C(=O)OCC)C2
1.38 nM	O=C(O)NCc1ccccc1 (tested in a mixture with another compound)
1.1 nM	COc1c(O)ccc(/C=C(\C#N)c2nc3ccccc3[nH]2)c1[N+](=O)[O-]
2.37 nM	Cc1oc(-c2ccccc2)cc1C(=O)Nc1cccc(/C=C/C(=O)O)c1
0.64 nM	Cc1ccccc1Nc1cccc2nonc12
1.22 nM	CN(/N=C\c1ccc(O)c(O)c1)c1nc(-c2ccccc2)cc(-c2ccccc2)n1
1.27 nM	CCOP(=O)(OCC)c1nc(/C=C/c2ccccc2)oc1NCc1ccccc1
0.8 nM	O=C(O)c1cccc(NN=C2c3ccccc3-c3ccccc32)c1
1.05 nM	CC1CCCC(C)N1C(=O)c1ccccc1Nc1ccc(SC(F)F)cc1 (configuration not stated)
1.07 nM	c1ccc(-c2nn3c(C4CCCCC4)nnc3s2)cc1
1 nM	CCC(=O)Oc1ccc2c(C)cc(=O)oc2c1C(=O)c1ccccc1
1.24 nM	Cc1ccccc1NC(=O)CSc1nc(COc2ccccc2)nc2ccccc12
0.84 nM	O=c1c2ccccc2c(-c2ccccc2)nn1Cc1c(Cl)cccc1Cl
1.54 nM	COC(=O)c1c(C)nc2ccccc2c1-c1ccccc1
